Patent US20200055839A1 (priority 2017, published 2020)

Each compound was assayed on NL-RLuc virus (assay: Inhibition of HIV replication (NL-RLuc virus, luciferase readout in MT-2 cells)). Settings: Human immunodeficiency virus 1, MT2, 120 h, MT-2 cells infected with NL-RLuc virus, 5 days of incubation, 10% FBS, at least 2 experiments.
Format: cell-based
In short: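 MT-2 cells infected with NL4-3-derived virus carrying Renilla luciferase in place of part of nef, grown 5 days with serial compound dilutions in RPMI 1640/10% FBS. Virus growth read as luciferase expression. EC50 from median effect equation, at least 2 experiments.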

Compound | EC50 [nM]
Cc1nc(C(C)(C)O)c(-c2ccc(OCCc3ccc(F)cc3)c(F)c2)c(N2CCC(C)(C)CC2)c1[C@H](OC(C)(C)C)C(=O)O (single isomer, unassigned) [Example 242] | 5
Cc1ncc(-c2ccc(F)nc2OCC(C)C)c(N2CCC(C)(C)CC2)c1[C@H](OC(C)(C)C)C(=O)O [Example 435, (2S)-2-tert-Butoxy-2-(4-(4,4-dimethylpiperidin-1-yl)-6′-fluoro-2′-isobutoxy-6-methyl-3, 3′-bipyridin-5-yl)acetic acid] | 501
CC1(C)CCN(c2c(-c3ccc(CNc4ncnc5c4oc4ccccc45)cc3)cnc(Cl)c2[C@H](OC(C)(C)C)C(=O)O)CC1 [Example 201, (S)-2-(5-(4-((Benzofuro[3,2-d]pyrimidin-4-ylamino)methyl)phenyl)-2-chloro-4-(4,4-dimethylpiperidin-1-yl)pyridin-3-yl)-2-(tert-butoxy)acetic acid] | 1
COc1ccc(CCOc2ncc(-c3cnc(C)c([C@H](OC(C)(C)C)C(=O)O)c3N3CCC(C)(C)CC3)cc2F)cc1C [Example 391, (2S)-2-(tert-butoxy)-2-[4-(4,4-dimethylpiperidin-1-yl)-5′-fluoro-6′-[2-(4-methoxy-3-methylphenyl)ethoxy]-6-methyl-[3,3′-bipyridine]-5-yl]acetic acid] | 4
Cc1nc(C(=O)N[C@H]2CC[C@H](C)CC2)c(-c2ccc(OCCc3ccc(F)cc3)cc2)c(N2CCC(C)(C)CC2)c1[C@H](OC(C)(C)C)C(=O)O [Example 12, (S)-2-(tert-Butoxy)-2-(4-(4,4-dimethylpiperidin-1-yl)-5-(4-(4-fluorophenethoxy)phenyl)-2-methyl-6-(((1 r, 4S)-4-methylcyclohexyl)carbamoyl)pyridin-3-yl)acetic acid] | 4
Cc1ncc(-c2ccc(OCCC(C)C)cn2)c(N2CCC(C)(C)CC2)c1[C@H](OC(C)(C)C)C(=O)O [Example 315, (2S)-2-(tert-butoxy)-2-[4′-(4,4-dimethylpiperidin-1-yl)-6′-methyl-5-(3-methylbutoxy)-[2,3′-bipyridine]-5′-yl]acetic acid] | 2
Cc1ncc(-c2ccc(OC(C)C(C)C)nc2)c(N2CCC(C)(C)CC2)c1[C@H](OC(C)(C)C)C(=O)O (stereo partly drawn) [Example 438, (2S)-2-tert-Butoxy-2-(4-(4,4-dimethylpiperidin-1-yl)-6-methyl-6′-(3-methylbutan-2-yloxy)-3, 3′-bipyridin-5-yl)acetic acid] | 14
Cc1ncc(-c2ccc(C(F)(F)F)c(F)c2F)c(N2CCC(C)(C)CC2)c1[C@H](OC(C)(C)C)C(=O)O [Example 172, (2S)-2-(tert-Butoxy)-2-{5-[2,3-difluoro-4-(trifluoromethyl)phenyl]-4-(4,4-dimethylpiperidin-1-yl)-2-methylpyridin-3-yl}acetic acid] | 14
Cc1cc(CCOc2ccc(-c3cnc(C)c([C@H](OC(C)(C)C)C(=O)O)c3N3CCC(C)(C)CC3)nc2)ccc1F [Example 294, (2S)-2-(tert-butoxy)-2-[4′-(4,4-dimethylpiperidin-1-yl)-5-[2-(4-fluoro-3-methylphenyl)ethoxy]-6′-methyl-[2,3′-bipyridine]-5′-yl]acetic acid] | 2
Cc1ncc(-c2cccc(C(=O)O)c2)c(N2CCC(C)(C)CC2)c1[C@H](OC(C)(C)C)C(=O)O [Example 147, 3-{5-[(S)-(tert-butoxy) (carboxy)methyl]-4-(4,4-dimethylpiperidin-1-yl)-6-methylpyridin-3-yl}benzoic acid] | 328
COc1ccc(CCOc2ccc(-c3cnc(C)c([C@H](OC(C)(C)C)C(=O)O)c3N3CCC(C)(C)CC3)nc2)cc1C [Example 291, (2S)-2-(tert-butoxy)-2-[4′-(4,4-dimethylpiperidin-1-yl)-5-[2-(4-methoxy-3-methylphenyl)ethoxy]-6′-methyl-[2,3′-bipyridine]-5′-yl]acetic acid] | 2
Cc1ncc(-c2cnc(OCCCc3ccccc3)c(F)c2)c(N2CCC(C)(C)CC2)c1[C@H](OC(C)(C)C)C(=O)O [Example 406, (2S)-2-(tert-butoxy)-2-[4-(4,4-dimethylpiperidin-1-yl)-5′-fluoro-6-methyl-6′-(3-phenylpropoxy)-[3,3′-bipyridine]-5-yl]acetic acid] | 4
Cc1ccc(CCOc2ccc(-c3cnc(C)c([C@H](OC(C)(C)C)C(=O)O)c3N3CCC(C)(C)CC3)nc2)cc1Cl [Example 331, (2S)-2-(tert-butoxy)-2-{5-[2-(3-chloro-4-methylphenyl)ethoxy]-4′-(4,4-dimethylpiperidin-1-yl)-6′-methyl-[2,3′-bipyridine]-5′-yl}acetic acid] | 0.5
Cc1cccc(COc2ccc(-c3cnc(C)c([C@H](OC(C)(C)C)C(=O)O)c3N3CCC(C)(C)CC3)nc2)c1 [Example 347, (2S)-2-(tert-butoxy)-2-[4′-(4,4-dimethylpiperidin-1-yl)-6′-methyl-5-[(3-methylphenyl)methoxy]-[2,3′-bipyridine]-5′-yl]acetic acid] | 1
Cc1nc(Nc2cccnc2F)c(-c2ccc(OCCc3ccc(F)cc3)cc2)c(N2CCC(C)(C)CC2)c1[C@H](OC(C)(C)C)C(=O)O [Example 90, (S)-2-(tert-Butoxy)-2-(4-(4,4-dimethylpiperidin-1-yl)-5-(4-(4-fluorophenethoxy)phenyl)-6-((2-fluoropyridin-3-yl)amino)-2-methylpyridin-3-yl)acetic acid] | 5
COc1ccc(CCOc2ccc(-c3cnc(C)c([C@H](OC(C)(C)C)C(=O)O)c3N3CCC(C)(C)CC3)cc2)cc1 [Example 367, (2S)-2-(tert-butoxy)-2-[4-(4,4-dimethylpiperidin-1-yl)-5-{4-[2-(4-methoxyphenyl)ethoxy]phenyl}-2-methylpyridin-3-yl]acetic acid] | 1
Cc1nc(OCCc2cccc(F)c2)ccc1-c1cnc(C)c([C@H](OC(C)(C)C)C(=O)O)c1N1CCC(C)(C)CC1 [Example 261, (S)-2-(tert-Butoxy)-2-(4-(4,4-dimethylpiperidin-1-yl)-6′-(3-fluorophenethoxy)-2′,6-dimethyl-[3, 3′-bipyridin]-5-yl)acetic acid] | 28
CCCCC(F)(F)c1ccc(-c2cnc(C)c([C@H](OC(C)(C)C)C(=O)O)c2N2CCC(C)(C)CC2)nc1 [Example 276, (S)-2-(tert-Butoxy)-2-(5-(1,1-difluoropentyl)-4′-(4,4-dimethylpiperidin-1-yl)-6′-methyl-[2, 3′-bipyridin]-5′-yl)acetic acid] | 14
Cc1ncc(-c2cnc(OCCc3ccccc3F)c(F)c2)c(N2CCC(C)(C)CC2)c1[C@H](OC(C)(C)C)C(=O)O [Example 120, (S)-2-(tert-Butoxy)-2-(4-(4,4-dimethylpiperidin-1-yl)-5′-fluoro-6′-(2-fluorophenethoxy)-6-methyl-[3, 3′-bipyridin]-5-yl)acetic acid] | 2
Cc1nc(N)c(-c2cnc(NCCc3ccc(F)cc3)c(F)c2)c(N2CCC(C)(C)CC2)c1[C@H](OC(C)(C)C)C(=O)O [Example 113, (S)-2-(2-Amino-4-(4,4-dimethylpiperidin-1-yl)-5′-fluoro-6′-((4-fluorophenethyl)amino)-6-methyl-[3, 3′-bipyridin]-5-yl)-2-(tert-butoxy)acetic acid] | 3
Cc1ncc(-c2ccc(OCC(C)C)nc2Cl)c(N2CCC(C)(C)CC2)c1[C@H](OC(C)(C)C)C(=O)O [Example 431, (2S)-2-tert-Butoxy-2-(2′-chloro-4-(4,4-dimethylpiperidin-1-yl)-6′-isobutoxy-6-methyl-3, 3′-bipyridin-5-yl)acetic acid] | 32
